In patent publication US20240270748A1 (Merck Patent GmbH, priority 2021, published 2024):

Tests used:
YAP-TEAD interaction = experiment: SK-HEP-1 reporter assay (8xTEAD responsive elements driving NanoLuc luciferase); type: cell-based
Procedure, shortened: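 Reporter read-out: NanoLuc luminescence from 8×TEAD elements stably integrated in SK-HEP-1 cells, after 24 h compound exposure at 37° C. Ten concentrations tested in duplicate, top 30 μM final, 0.3% DMSO; IC50 from curve.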

SW620 Yap KO cells = experiment: Viability assay in SW620 Yap KO (Yap independent) cells, CyQuant; type: cell-based; settings: Homo sapiens, SW-620, 96 h
Description: (§1) Viability Assay in NCI-H226 (Yap-Dependent) and SW620 Yap KO (Yap Independent) Cells
(§2) The ability of YAP-TEAD inhibitors to inhibit tumor cell growth was evaluated using two different cell lines: NCI-H226, which is a YAP dependent cell line, and SW620 cells, where YAP and TAZ were knocked out using CRISPR to generate a YAP independent cell line.
(§3) For the assay, cells were treated in duplicates with the test compounds in a 10-point dose, 1:3 dilution steps, with the top concentration starting at 30 μM (final concentration in assay). After a 96 hour incubation at 37° C., 95% rH, and 5% CO2, a cell-permeant DNA-binding dye that stains only healthy cells (CyQUANT®, Promega) was added to the cells, allowing the quantification of cell viability.
(§4) Cell Media: The NCI-H226 cells were cultured in the following media: RPMI 1640, +10% FBS, +1× GlutaMAX, +10 mM HEPES, +0.5% Pen/Strep. The SW620-KO cells were cultured in the following media: DMEM/F-12, +10% FBS, +1× GlutaMAX, +10 mM HEPES, +0.5% Pen/Strep.
(§5) Reagents: The reagents used are listed below:
(§6) Cell culture: The cells were examined using an inverted microscope to check for health, cell density, etc. To dissociate adherent cells, the monolayer of cells was washed once with pre-warmed PBS. After removing the PBS, 3 ml pre-warmed Accutase was added to a F75 flask, dispersed evenly and the flask was allowed to sit in incubator for ˜4-5 minutes.
(§7) When a single cell suspension was obtained, 7 ml of prewarmed growth media was added and resuspended with the cells. The cell suspension was transferred to a sterile 15 ml conical centrifuge tube, and spun for 5 min at 300×g, RT. The supernatant was discarded and the pellet was resuspended in 10 ml of pre-warmed growth media.
(§8) The total cell count was determined, and 20 μl of the desired cell number was added to each well of a 384 well plate using a Multidrop Combi. The plates were then incubated for 24 hours at 37° C., 95% rH, and 5% CO2.
(§9) Compound treatment: 24 hours after seeding, the cells were treated with compounds.
(§10) A 1:333 dilution of compounds, diluted in DMSO, was made to get a final concentration of 0.3% DMSO per well. To transfer the compounds to the assay plate, […] was shot from Labcyte low dead volume plates to the cell plates containing 20 μl media/well with the ECHO 555 liquid handling system.
(§11) After treatment, the cells were fed with 20 μl fresh pre-warmed assay media using a Multidrop combi.
(§12) The assay plates were then incubated for 96 h at 37° C., 95% rH, and 5% CO2.
(§13) 96 h after treatment 30 μl of CyQuant® reagent was added to the assay plates using a Multidrop combi in the dark. The plates were then incubated for 1 hour at 37° C., 95% rH and 5% CO2. Thereafter, the assay plates were removed from the incubator and allowed to equilibrate to RT for 30 min in the dark without lid. Finally, they were measured using an EnVision microplate reader with a FITC bottom read program.

NCI-H226 cells = experiment: Viability assay in NCI-H226 (Yap-dependent) cells, CyQuant; type: cell-based, human; settings: Homo sapiens, NCI-H226, 96 h, class symbols
Description: as §1, §2, §3, §4, §5, §6, §7, §8, §9, §10, §11, §12, §13

[1] = Homo sapiens, SK-HEP1, SK-HEP-1 reporter assay, class symbols
[2] = n.d. = value not detectable below threshold given in parentheses
[3] = SK-HEP-1 reporter assay, class symbols
[4] = Homo sapiens, SK-HEP1, SK-HEP-1 reporter assay, n.d. = value not detectable below threshold given in parentheses
[5] = n.d. = value not detectable below threshold given in parentheses, ND = not determinable within the entire range

Cn1nc2c3cc(C(=O)N[C@H](CCO)c4ccccn4)ccc3n(-c3ccc(C(F)(F)F)cc3)c2n1 (single isomer, unassigned) [Example C241]
IC50 (YAP-TEAD interaction; [1]): 10 to 100 nM | IC50 (SW620 Yap KO cells; [2]): > 3000 nM | IC50 (NCI-H226 cells): 100 to 1000 nM

Cn1nc2c3cc(C(=O)N[C@@H](CCO)c4ccccn4)ccc3n(-c3ccc(C(F)(F)F)cc3)c2n1 (single isomer, unassigned) [Example C242]
IC50 (YAP-TEAD interaction; [1]): 10 to 100 nM | IC50 (SW620 Yap KO cells; [2]): > 3000 nM | IC50 (NCI-H226 cells): 1 to 100 nM

COCCC(CO)NC(=O)c1ccc2c(c1)c1cn(C)nc1n2-c1ccc(C(F)(F)F)cc1 (single isomer, unassigned) [Example C245]
IC50 (YAP-TEAD interaction; [3]): 10 to 100 nM | IC50 (SW620 Yap KO cells; [2]): > 30000 nM | IC50 (NCI-H226 cells): 1 to 100 nM

Cn1nc2c3cc(C(=O)N=[S@@](=O)(CCCO)Cc4ccncc4)ccc3n(-c3ccc(C(F)(F)F)cc3)c2n1 (single isomer, unassigned) [Example C250]
IC50 (YAP-TEAD interaction; [4]): > 300 nM | IC50 (SW620 Yap KO cells; [2]): > 3000 nM | IC50 (NCI-H226 cells): 1 to 100 nM

Cn1nnc2c3cc(C(=O)N=[S@](=O)(CCO)Cc4cccnc4)ccc3n(-c3ccc(C(F)(F)F)cc3)c21 (single isomer, unassigned) [Example C251]
IC50 (YAP-TEAD interaction; [1]): 10 to 100 nM | IC50 (SW620 Yap KO cells; [2]): > 3000 nM | IC50 (NCI-H226 cells): 100 to 1000 nM

Cn1nc2c3cc(C(=O)N=[S@](=O)(CCCO)Cc4ccncc4)ccc3n(-c3ccc(C(F)(F)F)cc3)c2n1 (single isomer, unassigned) [Example C252]
IC50 (YAP-TEAD interaction; [4]): > 300 nM | IC50 (SW620 Yap KO cells; class symbols): 1000 to 10000 nM | IC50 (NCI-H226 cells): 100 to 1000 nM

Cn1cc2c3cc(C(=O)N=[S@](=O)(CCO)Cc4ccncc4)ccc3n(-c3ccc(C(F)(F)F)cc3)c2n1 (single isomer, unassigned) [Example C253]
IC50 (YAP-TEAD interaction; [4]): > 6500 nM | IC50 (SW620 Yap KO cells; class symbols): 1000 to 10000 nM | IC50 (NCI-H226 cells): 100 to 1000 nM

Cn1cc2c3cc(C(=O)N=[S@@](=O)(CCO)Cc4ccncc4)ccc3n(-c3ccc(C(F)(F)F)cc3)c2n1 (single isomer, unassigned) [Example C254]
IC50 (YAP-TEAD interaction; [4]): > 300 nM | IC50 (SW620 Yap KO cells; class symbols): 1000 to 10000 nM | IC50 (NCI-H226 cells): 1 to 100 nM

Cn1cnc2c1c1cc(C3CC(Oc4cncnc4)=NO3)ccc1n2-c1ccc(C(F)(F)F)cc1 (stereo not drawn) [Example 40, 5-[(5-{1-methyl-4-[4-(trifluoromethyl)phenyl]-1H,4H-imidazo[4,5-b]indol-7-yl}-4,5-dihydro-1,2-oxazol-3-yl)oxy]pyrimidine]
IC50 (YAP-TEAD interaction; [3]): 10 to 100 nM | IC50 (SW620 Yap KO cells; class symbols): > 30000 nM | IC50 (NCI-H226 cells): > 10000 nM

Cn1cnc2c1c1cc(C(=O)N[C@](C)(CO)c3ccccn3)ccc1n2-c1ccc(C(F)(F)F)cc1 [Example C2, N-[(2S)-1-hydroxy-2-(pyridin-2-yl)propan-2-yl]-1-methyl-4-[4-(trifluoromethyl)phenyl]-1H,4H-imidazo [4,5-b]indole-7-carboxamide]
IC50 (YAP-TEAD interaction; [1]): 10 to 100 nM | IC50 (SW620 Yap KO cells; [5]): > 30000 nM | IC50 (NCI-H226 cells): 1 to 100 nM

Cn1nnc2c3cc(-c4noc(=O)[nH]4)ccc3n(-c3ccc(C(F)(F)F)cc3)c21 [Example C3, 3-{2-methyl-4-[4-(trifluoromethyl)phenyl]-3H,4H-[1,2,3]triazolo[4,5-b]indol-7-yl}-4,5-dihydro-1,2,4-oxadiazol-5-one]
IC50 (YAP-TEAD interaction; [1]): 10 to 100 nM | IC50 (SW620 Yap KO cells; [5]): > 30000 nM | IC50 (NCI-H226 cells): 100 to 1000 nM

Cn1cc2c3cc(NS(C)(=O)=O)ccc3n(-c3ccc(C(F)(F)F)cc3)c2n1 [Example C6, N-{2-methyl-8-[4-(trifluoromethyl)phenyl]-2H,8H-pyrazolo[3,4-b]indol-5-yl}methanesulfonamide]
IC50 (YAP-TEAD interaction; [1]): 1 to 10 nM | IC50 (SW620 Yap KO cells; [5]): > 9500 nM | IC50 (NCI-H226 cells): 1 to 100 nM

O=C(O)c1ccc2c(c1)c1cn(C3CCCCO3)nc1n2-c1ccc(C(F)(F)F)cc1 (stereo not drawn) [Example C10, 2-(oxan-2-yl)-8-[4-(trifluoromethyl)phenyl]-2H,8H-pyrazolo[3,4-b]indole-5-carboxylic acid]
IC50 (YAP-TEAD interaction; [1]): 10 to 100 nM | IC50 (SW620 Yap KO cells; [5]): > 30000 nM | IC50 (NCI-H226 cells): 100 to 1000 nM

Cn1cnc2c1c1cc(C(=O)N[C@@](C)(CO)c3ccccn3)ccc1n2-c1ccc(C(F)(F)F)cc1 [Example C12, N-[(2R)-1-hydroxy-2-(pyridin-2-yl)propan-2-yl]-1-methyl-4-[4-(trifluoromethyl)phenyl]-1H,4H-imidazo [4,5-b]indole-7-carboxamide]
IC50 (YAP-TEAD interaction; [1]): 1 to 10 nM | IC50 (SW620 Yap KO cells; [5]): > 3000 nM | IC50 (NCI-H226 cells): 1 to 100 nM
